Data: paper PMC7288112 (Molecules, 2020)

Target: Rv1466 (Mycobacterium tuberculosis, UniProt O53157)
Assay: biochemical
Assay type: binding

Chain of Rv1466 (O53157 entry or part of it): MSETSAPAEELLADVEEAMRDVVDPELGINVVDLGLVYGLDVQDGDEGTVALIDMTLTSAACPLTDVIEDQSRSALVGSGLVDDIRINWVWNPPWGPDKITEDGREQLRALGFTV

## O=C1C=C[C@@H]2O[C@H](c3ccccc3)[C@@H](O)[C@@H]2O1 [altholactone]
  Kd: 42 ± 6.1 µM
